According to patent publication US20140050779A1, “[…]-2 INHIBITORS AND USES THEREOF” (SINGAPORE HEALTH SERVICES PTE. LTD., priority 2011, published 2014):

Tests used:
TG-2 = TG-2 colorimetric microassay (transamidase activity) in lysate of treated human scleral fibroblasts; format: cell-based; conditions: for transamidase activity of endogenous cellular TG-2: human scleral fibroblasts, 0.1, 1, 10 and 100 μM for 5 days, concentration-dependent
Protocol: All cells used in examples described herein were between passages 2-4. Passaged cells were plated at a concentration of 2×10^5/mL into 6 well plates containing DMEM with 10% FBS. […] Old media was removed from wells and 1 mL of drug was added with fresh full medium and incubated at 37° C. Fresh drugs were replaced daily consecutively for the next 5 days to avoid oxidation. The drugs/media was removed and wells were washed twice with 1×PBS. 200 μl of RIPA lysis buffer was added per well and incubated for 5 minutes and cells were scrapped into an eppendorf tube. The cells were stored at −20° C. until sonication. The cells were sonicated on ice thrice at 20% output power for 5 seconds each time and rested 1 minute in between each turn. Cell debris was spun down at 12000 rpm for 20 minutes. The supernatant was poured into a new eppendorf tube and cell concentrations were determined using the Dc Protein assay Kit (Bio-Rad, MA). Passaged cells were plated at a concentration of 1×10^5 into 6 well plates containing DMEM with 10% FBS. […] Freshly prepared muscarinic agents' at base line, 0.1, 1, 10 and 100 μM concentrations were added for 5 days (Table 2). The culture medium was removed and fresh medium containing the same muscarinic drug added every day to avoid drug changes such as atropine oxidation. Cell lysate was collected for relative quantitative (q) PCR and protein analysis at day 5.
This assay was designed to assess the cross-linking activity of TG-2 between two proteins. TG activity was measured with TG-2 colorimetric Microassay kit (TG-Covtest, Covalab, Cambridge, UK). 150-200 μg of total protein was used per well for the TG-2 assay. Transglutaminase standards (Sigma) were used as a positive control. EDTA was used to inhibit the enzyme activity as a negative control.
The approximate volume of reagents to use, the wavelengths to use to read absorbance, the incubation times were determined from a previous study that have carried out experiments with similar principles as described in Perez Alea M, Kitamura M, Martin G, Thomas V, Hitomi K, El Alaoui S., “Development of an isoenzyme-specific colorimetric assay for tissue transglutaminase 2 cross-linking activity”, Anal Biochem. 2009 Jun. 15; 389(2):150-6, Epub 2009 March 24. All reagents used and protein coated plates were part of the kit. Biotin cadaverine was reconstituted with 6 ml of deionized water and 90 μl was added into each well of the 96 well plate that comes coated with CBZ-GLN-GLY. The rest of the steps were followed as in the manufacturer's instructions and finally absorbance was read at 450 nm using a microplate reader (TECAN, Austria). All incubations were performed with gentle shaking on a laboratory orbital shaker.
The TG-2 colorimetric assay serves as a high throughput and quantitative assay to assess transamidase activity. […] In vivo studies with these drugs were also conducted to determine the effect on myopia development (see FIGS. 14 and 15).

[1] = system: mouse eyes treated with −15D spectacle lens; test: spectacle lens-induced myopia in mice, axial length and refractive error; format: in vivo; conditions: lens with 0.1% drug; for axial length: vs lens treated eyes; for refractive error: infrared photorefractor
Protocol: Topical applications were administered to both eyes at the same time each day (approximately 9:00 AM) commencing on the 12th day (initiation of spectacle lens treatment). A compatible drug level was determined prior to the in vivo use in a tissue culture study with mouse scleral fibroblasts. […] This treatment schedule continued for four weeks starting on post-natal day 12 continued until post-natal day 42. All measurements were taken at post-natal day 42, the equivalent of 4 weeks of spectacle lens wear.
Each eye was refracted every week to measure the refractive error using automated infrared photorefraction as described in Barathi, V. A., Beuerman, R. W., Schaeffel, F., 2009a, “Effects of unilateral topical atropine on binocular pupil responses and eye growth in mice”, Vision Res 49, 383-387. By using Optical Low Coherence Interferometry (OLCI, AC Master, Carl-Zeiss), the axial length of the eye was measured in-vivo as described in Yin G C, Gentle A, McBrien N A, “Muscarinic antagonist control of myopia: a molecular search for the M1 receptor in chick”, Mol. Vis. 2004; 13(10):787-93 and Barathi, V. A., Boopathi, V. G., Yap, E. P., Beuerman, R. W., 2008, “Two models of experimental myopia in the mouse”, Vision Res 48, 904-916. […] Differences of refractive power and axial length between eyes were calculated. Independent t-tests were used to compare experimental and control eyes in wild type and TGM2-deleted or M1-M5 mutant mice.
Right eyes were experimental and left eyes served as contra-lateral control. In vivo axial length was measured at 2 weeks and 4 weeks after treatment. […] Automated infrared photorefractor was used to measure the refractive error measurements.

| SMILES | transamidase activity of endogenous cellular TG-2 (TG-2) | axial length ([1]; 2 weeks and 4 weeks) | refractive error [1] | TG-2 activity, strongest reduction among the antagonists (TG-2; human scleral fibroblasts, all concentrations) | TG-2 activity as compared to atropine (TG-2; human scleral fibroblasts, himbacine 0.1, 1, 10 & 100 μM, darifenacin 0.1, 1 & 10 μM) | reduction in the mouse myopia progression, among all the drugs ([1]; 2 weeks and 4 weeks) |
| --- | --- | --- | --- | --- | --- | --- |
| CN1[C@@H]2CC[C@H]1C[C@@H](OC(=O)C(CO)c1ccccc1)C2 (stereo partly drawn) [atropine] | reduced | significantly reduced | shifted from myopic to hyperoic |  |  |  |
| C[C@@H]1OC(=O)[C@H]2C[C@H]3CCCC[C@@H]3[C@@H](/C=C/[C@H]3CCC[C@H](C)N3C)[C@@H]12 [himbacine] | reduced | significantly reduced | shifted from myopic to hyperoic | most significantly reduced | more significantly reduced | most significant amount of reduction |
